Assay results taken from patent publication US8628750B2, “Cancer imaging and treatment” (Technische Universitat Munchen, priority 2006, dated 2014).
Read-outs that look alike come from different tables or passages of the source. Numbered stars: 1 amine (or outer) side, 2 acyl side, 3 side chain; on linkers, the order of the positions; unused ones are H or OH. Square brackets hold non-standard residues; d marks the D form. Peptide text beside a SMILES is read from it. * marks the point of attachment. X3 = O=C(c1ccc(F)cc1)N(CCC[C@H](N[*:1])C(=O)[*:2])Cc1ccccc1; X1 = CN(CCC[C@H](C(=O)[*:2])N(C)[*:1])C(=O)c1ccc(F)cc1; X2 = O=C([C@H](CCCNCc1cccc2ccccc12)N[*:1])[*:2]; X4 = O=C([C@H](CCCNCc1ccc2ccccc2c1)N[*:1])[*:2]; 2Nal = N[C@@H](Cc1ccc2ccccc2c1)C(=O)O; Benzoyl(4-F) = O=C(c1ccc(F)cc1)*; dOrn = NCCC[C@@H](N)C(=O)O; Orn = NCCC[C@H](N)C(=O)O

How the values were obtained:
human CXCR4 [1] = molecular target: T1, human CXCR4 (Homo sapiens, UniProt P61073); assay: cell-based; type: binding; design: Jurkat cells that endogenously express the CXCR4 receptor; endogenous in cells; host or cells: Jurkat (ATCC)
Experimental: For receptor binding assays cells were resuspended in PBS/0.2% BSA. A total of 200 μl of the suspension containing 400,000 cells (Jurkat, CMS5) or 200,000 cells (CMS5/CXCR4) were incubated with 25 μl of the tracer solution (containing 3.1 kBq, approx. 0.1 nM) and 25 μl of the diluent or the competitor at different concentrations. […] After shaking for 2 h at room temperature, the incubation was terminated by centrifugation at 700×g and 4° C. for 4 min. Cell pellets were washed once with cold PBS followed by a second centrifugation step or for internalization studies, two times with an acidic wash buffer (20 mM NaOAc, pH5.0). Cell bound radioactivity was determined by using a gamma counter. Experiments were repeated 2-3 times in duplicates or triplicates. IC50 values of the binding curves were calculated by nonlinear regression on a one-site or two-site competition based model using Prism 3.0 (Graph Pad Software, Inc, San Diego). KD and Bmax values were determined by nonlinear regression with the Prism 3.0 according to the manufacturer's protocol.

human CXCR4 [2] = molecular target: T1, human CXCR4
Experimental: CXCR4 expression on the cell surface of trypsinized cells was determined using a phycoerythrine (PE)-labeled monoclonal rat antibody with specificity for human CXCR4 (1D9, BD Biosciences Pharmingen, Heidelberg, Germany). Trypsinized cells were washed with FACS buffer (PBS, 0.5% FCS) and 1×10^6 cells were stained with 0.5 μg antibody for 30 min. in the dark at 4° C. Cells were extensively washed with ice-cold FACS buffer and analyzed by flow cytometry. Nonspecific staining was assessed by PE-conjugated rat IgG2b,κ (BD Biosciences Pharmingen, Heidelberg, Germany). […] CXCR-4 staining was plotted against EGFP fluorescence (FL1).
(adapted from protocols published previously)[7, 8]; controls were incubated with diluent (PBS/0.1% BSA). Samples were immediately transferred to ice to avoid further internalization, centrifuged, washed with PBS/0.5% BSA and FACS staining for CXCR4 was performed as indicated above.

T1 sequence (P61073 whole entry): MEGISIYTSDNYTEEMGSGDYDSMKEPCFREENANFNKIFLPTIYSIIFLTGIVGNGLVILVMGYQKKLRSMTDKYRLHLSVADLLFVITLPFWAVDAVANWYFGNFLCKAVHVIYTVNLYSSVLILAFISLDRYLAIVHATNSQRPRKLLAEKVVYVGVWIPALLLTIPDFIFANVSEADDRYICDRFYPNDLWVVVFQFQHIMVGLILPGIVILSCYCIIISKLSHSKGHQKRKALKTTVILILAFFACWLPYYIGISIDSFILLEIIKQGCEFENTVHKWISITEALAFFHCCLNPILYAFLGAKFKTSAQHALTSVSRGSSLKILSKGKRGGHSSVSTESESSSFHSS

## N=C(N)NCCC[C@@H]1NC(=O)[C@@H](CCCNC(=O)c2ccc(F)cc2)NC(=O)[C@@H](Cc2ccc(O)cc2)NC(=O)CNC(=O)[C@H](Cc2ccc3ccccc3c2)NC1=O [cyc[D-Tyr-D-Orn(FB)-Arg-Nal-Gly]] (cyclo([2Nal]G[dY][dOrn](Benzoyl(4-F))R))
Human CXCR4 [1]
  IC50: 86 nM

## N=C(N)NCCC[C@@H]1NC(=O)[C@H](CCCNC(=N)N)NC(=O)[C@@H](Cc2ccc(O)cc2)NC(=O)CNC(=O)[C@H](Cc2ccc3ccccc3c2)NC(=O)[C@H](Cc2ccc3ccccc3c2)NC1=O [BL 42, cyc[D-Tyr-Arg-Arg-Nal-Nal-Gly]] (cyclo([2Nal][2Nal]G[dY]RR))
Human CXCR4 [1]
  IC50: > 1000 nM

## N=C(N)NCCC[C@@H]1NC(=O)[C@H](CCCNCc2cccc3ccccc23)NC(=O)[C@@H](Cc2ccc(O)cc2)NC(=O)CNC(=O)[C@H](Cc2ccc3ccccc3c2)NC1=O [cyc[D-Tyr-Orn(N1)-Arg-Nal-Gly]] (cyclo([dY][X2]R[2Nal]G))
Human CXCR4 [1]
  IC50: 40 ± 3 nM

## N=C(N)NCCC[C@@H]1NC(=O)[C@H](CCCN(Cc2ccccc2)C(=O)c2ccc(F)cc2)NC(=O)[C@@H](Cc2ccc(O)cc2)NC(=O)CNC(=O)[C@H](Cc2ccc3ccccc3c2)NC1=O [cyc[D-Tyr-Orn(Bz,FB)-Arg-Nal-Gly]] (cyclo([2Nal]G[dY][X3]R))
Human CXCR4 [1]
  IC50: 100 nM

## N=C(N)NCCC[C@@H]1NC(=O)[C@H](CCCNC(=O)c2ccc(F)cc2)NC(=O)[C@@H](Cc2ccc(O)cc2)NC(=O)CNC(=O)[C@H](Cc2ccc3ccccc3c2)NC1=O [cyc[D-Tyr-Orn(FB)-Arg-Nal-Gly]] (cyclo([dY][Orn](Benzoyl(4-F))R[2Nal]G))
Human CXCR4 [1]
  IC50: 11 nM

## SDF-1α
Human CXCR4 [2]; CMS5/CXCR4 cells, 100 nM SDF-1α, 1 hr at 37° C., control-treated […]
  cells stained positive for CXCR4 after pre-incubation: 54.7%
Human CXCR4 [2]; CMS5/CXCR4 cells, mock treated 209.0
  mean fluorescence intensity of CXCR4 staining: 80.5
Human CXCR4 [2]; Jurkat cells, drop from 385.4
  mean fluorescence intensity of CXCR4 staining: 155.4
Human CXCR4 [2]; parental CMS5 cells, in the presence of SDF-1α, from 7.9
  CXCR4-background staining: 2.7%

## CN(CCC[C@@H]1C(=O)N[C@@H](CCCNC(=N)N)C(=O)N[C@@H](Cc2ccc3ccccc3c2)C(=O)NCC(=O)N[C@H](Cc2ccc(O)cc2)C(=O)N1C)C(=O)c1ccc(F)cc1 [cyc[D-Tyr-(Me)D-Orn(Me,FB)-Arg-Nal-Gly]] (cyclo([2Nal]G[dY][X1]R))
Human CXCR4 [1]
  IC50: 59 nM

## N=C(N)NCCC[C@@H]1NC(=O)[C@H](CCCNCc2ccc3ccccc3c2)NC(=O)[C@@H](Cc2ccc(O)cc2)NC(=O)CNC(=O)[C@H](Cc2ccc3ccccc3c2)NC1=O [cyc[D-Tyr-Orn(N2)-Arg-Nal-Gly]] (cyclo([dY][X4]R[2Nal]G))
Human CXCR4 [1]
  IC50: 49 ± 1 nM
